The values below come from patent US5919635A (ZymoGenetics, Inc., priority 1995, dated 1999).

The target in assay [1] is T1, cloned receptor (rat glucagon receptor, pLJ4) (Rattus norvegicus, UniProt P30082).
T1 construct: pLJ4 contained an approximately 2 kb insert encoding a 485 amino acid protein; expressed in transfected cells; host or cells: BHK570
Description: Competition binding / Scatchard analysis with ^125 I-glucagon on membranes of pLJ4 BHK transfectants. The settings on record: micromolar amounts (Table 7: 1 μM glucagon and des-His^1 [Glu^9]glucagon amide). On the procedure:
Membranes from the pLJ4 BHK transfectants were compared with rat liver membrane preparations for the ability to bind ^125 I-glucagon. Membranes were prepared essentially described by Rodbell et al. (J. Biol Chem. 246:1861-1871, 1971, which is incorporated by reference herein in its entirety). Two batches of liver membranes were each prepared from approximately 80 gm of liver from 12 to 16 decapitated young female rats. The livers were removed quickly and placed into an iced beaker. The livers were separated into ten-gram portions. The portions were minced with scissors, and connective tissue was removed during the mincing procedure. The portions were separately homogenized in a Dounce homogenizer. To each portion, 25 ml of Medium (Table 2) was added to the minced tissue in the homogenizer, and the tissue was homogenized in an ice bucket with eight vigorous strokes of the loose pestle. After homogenization, the homogenates were pooled into 450 ml of cold Medium (Table 2). The pooled homogenates were stirred for 3 minutes and filtered through two layers of cheesecloth followed by filtering through four layers of cheesecloth. The homogenates were then centrifuged for 30 minutes at 1500×g at 4° C. The supernatants were discarded, and the pellets were pooled into a clean Dounce homogenizer. The pellets were resuspended with three gentle strokes of the loose pestle. The resuspended pellets were decanted into a 250 ml graduate containing 62 ml of 69% Sucrose Solution (Table 2). Distilled water was added to a final volume of 110 ml, and the mixture was thoroughly mixed and kept cold. The concentration of the solution was adjusted to 44.0%+/-0.1% using 69% sucrose or water as measured by a refractometer (Bausch & Lomb, Rochester, N.Y.). […]
To each tube 100 μl of 2× binding buffer; 20 μl of ^125 I-glucagon (Amersham); 20 μl of 1 mM NaHCO3; 20 μl 10 mM HOAc, 0.5% BSA (Novo Nordisk N/A, Bagsvaerd, Denmark); and 40 μl of distilled water were added. […] The supernatants from each sample were aspirated, and the pellets were counted. […]

In another assay the test system is isolated human islets. Description: Insulin secretory function of isolated human pancreatic islets after perfusion. The class given is cell-based. As to the method:
Islet cells were isolated from human pancreata obtained from organ transplant donors for whom a matched recipient was not available. After in situ perfusion with cold UW solution (Du Pont, Boston, Mass.), each pancreas was carefully excised, the pancreatic duct cannulated, and 4 mg/ml collagenase solution (Type V, Sigma, St. Louis, Mo.) infused at a constant rate, first at 4° C. and then 39° C. The gland was teased apart, and liberated fragments were washed by centrifugation, triturated through needles of decreasing caliber, and purified by discontinuous Ficoll density centrifugation (Warnock, Diabetes 35(Suppl. 1):136-139, 1989). Material harvested from the upper interfaces was pooled and counted after a determination of islet purity by dithiazone staining. Islets used in library construction were greater than 65% pure, while islets used in Northern blots were greater than 40% pure. The average islet diameter was 175 μm.

For assay [2], the target named is Rat Glucagon Receptor (pLJ4) in COS-7 cells (Rattus norvegicus, UniProt P30082). The experiment in a line: cAMP accumulation (Amersham SPA kit) in COS-7 cells transfected with pLJ4. The class given is cell-based. The settings on record: 100 nM to 1000 nM; pLJ4 transfectants. In general terms: cAMP levels reflect the balance of adenylyl cyclase and phosphodiesterase activity.

The next assay concerns the target T2, rat glucagon receptor (Rattus norvegicus, UniProt P30082).
T2 construct: pLJ4 contained an approximately 2 kb insert encoding a 485 amino acid protein; expressed in transfected cells; host or cells: BHK/KZ6-19-46 (BHK570 with CRE-luciferase plasmid KZ6), clone KZ6/rGR-DHFR-2
The experiment in a line: CRE-luciferase induction in pLJ4 transfectant clone KZ6/rGR-DHFR-2. Type of assay: cell-based. To be noted: listed 200 nM GLP, 20 nM VIP, 100 nM CT, 4 hours at 37° C. As to the method: D. Luciferase and Adenylate Cyclase Activity Assays on Whole Cells
BHK/KZ6-19-46 cells were co-transfected with pLJ4 and pLJ1 or with pZCEP and pLJ1 (pZCEP transfectants were used as negative controls) as described above using calcium phosphate-mediated transfection. Transfectants were selected in 250 nM methotrexate as described previously.
Transfectants were assayed in triplicate for the induction of the CRE-luciferase response by selected agonists. Six random pLJ4 transfectants were assayed, and random pZCEP transfectants were assayed (negative controls). Microtiter assay plates were set up such that each well contained 2×10^4 cells in 100 μl of selection medium, and the cells were grown overnight. The agonists were prepared in selection medium, at the 2× final assay concentration listed:
Induction was initiated by the addition of 100 μl for each 2× solution in triplicate sample wells. Uninduced levels were determined in triplicate wells to which 100 μl of DMEM containing 10% fetal calf serum was added. The plates were incubated for four hours at 37° C., 5% CO2 to allow induction of luciferase production.
(§1) Following induction, the medium was removed, and the wells were washed once with 200 μl/well PBS. […] The fold induction of luciferase for each agonist was calculated as follows: [formula]

In assay [3] the target is Human Glucagon Receptor (pLJ6') (Homo sapiens, UniProt P47871). The experiment in a line: cAMP accumulation in pLJ6'-transfected cells. The class given is cell-based. As to the method:
The related peptides secretin, VIP, PTH, GLP and calcitonin were each added to transfectants at concentrations of 100 nM to 1000 nM and assayed for their ability to induce cAMP levels.
Transfected cells were selected in the presence of G418 until single colonies were visible. Single colonies were cloned using cloning cylinders.
The PLJ6'-transfected cells were assayed for cAMP accumulation essentially as described in Example 8.C.

The test system of assay [4] is CRE-luciferase (KZ6) in BHK570 cells. The experiment in a line: Luciferase assay response to forskolin of KZ6-transfected BHK570 clone BHK/KZ6-19-46. The class given is cell-based. On the procedure:
Plasmid KZ6 was transfected into BHK570 cells (deposited with the American Type Culture Collection under Accession No. 10314) using the calcium phosphate precipitation method essentially as described by Graham and Van der Eb (Virology 52:456, 1973, which is incorporated by reference herein in its entirety). The transfected cells were grown in growth medium (Dulbecco's modified Eagle's medium (DMEM) containing 10% fetal calf serum, 1× PSN antibiotic mix (GIBCO-BRL), and 2.0 mM L-glutamine). After a few days in non-selective growth medium, the growth medium was replaced with G418 selection medium (growth medium containing 500 μg/ml of G418). The cells were then allowed to grow to confluency after which they are trypsinized and plated at limiting dilution into the wells of 96-well plates. The cells were grown for one to two weeks in G418 selection media. Clones from wells containing single colonies were assayed for the ability to respond to forskolin in the luciferase assay described below. Forskolin elevates the cellular cAMP level and thus the associated cAMP-dependent biological response pathways in a receptor-independent manner.
as §1

No end group written: not given here.

Rat Glucagon Receptor (pLJ4) in COS-7 cells, sequence (P30082 27-485): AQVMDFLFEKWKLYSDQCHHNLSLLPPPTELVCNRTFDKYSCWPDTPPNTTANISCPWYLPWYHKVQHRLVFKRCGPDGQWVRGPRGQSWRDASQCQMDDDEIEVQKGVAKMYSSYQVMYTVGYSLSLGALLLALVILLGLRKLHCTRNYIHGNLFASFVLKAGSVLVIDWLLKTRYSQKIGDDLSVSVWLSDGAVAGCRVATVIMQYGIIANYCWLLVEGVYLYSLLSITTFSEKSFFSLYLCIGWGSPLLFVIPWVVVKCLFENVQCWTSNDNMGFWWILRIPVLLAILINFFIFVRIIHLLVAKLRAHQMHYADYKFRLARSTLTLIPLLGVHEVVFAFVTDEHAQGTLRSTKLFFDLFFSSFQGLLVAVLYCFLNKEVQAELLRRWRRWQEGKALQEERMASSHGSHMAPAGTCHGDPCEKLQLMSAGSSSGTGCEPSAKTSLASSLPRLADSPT
Human Glucagon Receptor (pLJ6'), sequence (P47871 26-477): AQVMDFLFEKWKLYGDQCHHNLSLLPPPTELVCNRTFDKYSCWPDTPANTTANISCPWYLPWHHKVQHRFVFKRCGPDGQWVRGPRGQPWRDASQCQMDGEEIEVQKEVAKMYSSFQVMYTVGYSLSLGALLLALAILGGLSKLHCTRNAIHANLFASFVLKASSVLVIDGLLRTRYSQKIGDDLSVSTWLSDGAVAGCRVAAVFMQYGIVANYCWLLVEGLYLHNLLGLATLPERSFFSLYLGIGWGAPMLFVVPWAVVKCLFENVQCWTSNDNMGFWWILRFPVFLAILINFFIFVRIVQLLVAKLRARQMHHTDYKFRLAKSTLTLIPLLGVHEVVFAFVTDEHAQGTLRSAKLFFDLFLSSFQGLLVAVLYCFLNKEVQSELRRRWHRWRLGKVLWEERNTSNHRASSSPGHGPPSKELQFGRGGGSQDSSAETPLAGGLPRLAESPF
T1 sequence (P30082 27-485): as the sequence (P30082 27-485) above
T2 sequence (P30082 27-485): as above

Take des-His^1 [Glu^9 ]glucagon amide: in assay [1], the “ability to compete for ^125 I-glucagon binding” value is listed as “able to compete”.
Take `O=C[C@H](O)[C@@H](O)[C@H](O)[C@H](O)CO` [glucose]: in the assay on isolated human islets, the “insulin secretory function (in words)” value was “both first and second phase insulin secretory function”.
Take calcitonin: the “ability to induce cAMP levels” value in assay [2] is given as “none of the related peptides were capable of inducing significant increases in cAMP levels”. Besides, the “induction of luciferase (in words)” value at rat glucagon receptor was “not induced”.
With “secretin: porcine secretin (Sigma) (HSDGTFTSELSRLRDSARLQRLLQGLV; ends and bridges not checked; UniProt P63298 33-59, looked up)”, in assay [2], the “ability to induce cAMP levels” value is recorded as “none of the related peptides were capable of inducing significant increases in cAMP levels”. Also, the “cAMP accumulation (in words)” value in assay [3] is on record as “no increased cAMP accumulation”.
For the molecule `C=C[C@@]1(C)CC(=O)[C@]2(O)[C@@]3(C)[C@@H](O)CCC(C)(C)[C@@H]3[C@H](O)[C@H](OC(C)=O)[C@@]2(C)O1` [forskolin], the “ability to respond to forskolin in the luciferase assay” value in assay [4] is on record as “capable of responding to forskolin”.
For the molecule `CC(C)Cn1c(=O)n(C)c(=O)c2[nH]cnc21` [isobutylmethylxanthine (IBMX), isobutylmethylxanthine], the “insulin secretory function (in words)” value in the assay with isolated human islets was “both first and second phase insulin secretory function”.

B1: PTH: bovine parathyroid hormone (PTH) (Sigma) (peptide, UniProt P01268 32-115, looked up)
Parathyroid hormone: AVSEIQFMHNLGKHLSSMERVEWLRKKLQDVHNFVALGASIAYRDGSSQRPRKKEDNVLVESHQKSLGEADKADVDVLIKAKPQ
modifications: Parathyroid hormone
B1: the “ability to induce cAMP levels” value in assay [2] is recorded as “none of the related peptides were capable of inducing significant increases in cAMP levels”.
